Measurements from patent publication US7745390B2, “Antimicrobial peptides” (priority 2005, dated 2010).
Converted amounts (≈) assume the structure as drawn. Square brackets hold non-standard residues; d marks the D form. Peptide text beside a SMILES is read from it.

How the values were obtained:
S. aureus = assay: Mouse wound model of luminescent S. aureus infection; type: in vivo, BALB/c mice
From the text: In this protocol, BALB/c mice of 4-6 weeks of age were exposed to wounds on their backs, then inoculated with an infection of S. aureus, which had 10^5 cfu per pocket (2×10^7 […] DMEM) The S. aureus had been transfected with a plasmid containing luciferase as well as the substrate for luciferase. Using a special camera, light is detected from living bacteria in the wound. The light intensity is converted to a color scale. Controls received no peptide, and the treatment group received peptide at the indicated dose. Animals were imaged at 1, 3, 6 and 24 hrs.

B. cereus [1] = type: cell-based; conditions: pH 7.2
Procedure, shortened: (§1)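 Bacterial suspensions (~5×10^6 CFU/ml) and serially diluted peptides, both in low-nutrient phosphate buffer (pH 7.2, 0.03% LB), are combined and held 3 h at 37 °C. Full LB is added for overnight growth. The MIC marks no growth, and IC50 marks 50% growth relative to medium.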

E. coli DH5a = type: cell-based; conditions: DH5a
Procedure, shortened: as §1

[2] = Degree of helicity by circular dichroism; type: physicochemical
Experimental: For designing analogues of the present sequences, as taught herein, the Table also presents data on the degree of helicity of the active peptides, as measured by circular dichroism. It should be noted that a number of the active peptides listed in the figure are not alpha helices at all. At least one peptide tested was considered to be a random coil, with no detectible secondary structure evident in the circular dichroism measurement.
The MIC values are for E. coli in 10 mM phosphate buffer. The peptides were derived by the inventors from granulysin helix 3. […] It contains an equal number of hydrophobic and positively charged amino acids, can adapt an αhelical structure, and is very amphipathic. In contrast, the remaining 3 peptides all retain activity in DMEM even in the presence of serum. These peptides contain more positive residues than hydrophobic residues. G12.21 contains 2 proline residues, G11.46 is based on a modification of the helix three sequence (RRVSRRFMRR) (SEQ ID NO: 91) with a 5 arginine extension at the NH2 terminus, and G14.15 includes loop 2/RRVSRRFMRR (SEQ ID NO: 91).

Salmonella = type: cell-based, S. typhimurium; conditions: pH 7.2
Procedure, shortened: as §1

bacterial strains = assay: organism not typed; type: cell-based
Experimental: (§2) Three preferred peptides G11.46, G12.21 and G14.15, discussed above, were further tested for antimicrobial efficacy under various conditions using the 10% FCS/DMEM assay as described under CFU assay. The incubation times with the bacteria and peptide was three hours, at which time the bacteria were diluted and plated on agar. […] The MIC for each compound is highlighted.
Table 9 below repeats some data presented above in Tables 6, 7, and 8.

E. coli = assay: CFU assay in 10% FCS/DMEM; type: cell-based; conditions: 3 hrs
Experimental: (§3) The CFU assay is the “gold standard” for evaluating antibiotics. Briefly, bacteria are grown overnight in rich medium, such as LB, and then diluted and grown in log phase for 2-4 hours. Cultures are set up as above, with the initial culture media being 10 mM phosphate buffer/0.03% LB; DMEM or RPMI; or DMEM or RPMI plus 10% serum (fetal calf, human, or mouse). After various periods of time, but generally 3 hours or less, aliquots are removed, diluted in LB at various dilutions, and plated on LB agar plates. Plates are incubated overnight at 37° C. and counted on an automatic colony counter.
as §2

Salmonella typhimurium = assay: CFU assay in 10% FCS/DMEM; type: cell-based; conditions: 3 hrs
Experimental: as §3, §2

B. cereus [3] = assay: CFU assay in 10% FCS/DMEM; type: cell-based; conditions: 3 hrs
Experimental: as §3, §2

Staphylococcus aureus = assay: CFU assay in 10% FCS/DMEM; type: cell-based; conditions: 3 hrs
Experimental: as §3, §2

CSCC[C@H](NC(=O)[C@H](Cc1ccccc1)NC(=O)[C@@H](CCCNC(=N)N)NC(=O)[C@@H](CCCNC(=N)N)NC(=O)[C@H](CO)NC(=O)[C@@H](NC(=O)[C@@H](CCCNC(=N)N)NC(=O)[C@@H](CCCNC(=N)N)NC(=O)[C@@H](CCCNC(=N)N)NC(=O)[C@@H](CCCNC(=N)N)NC(=O)[C@@H](CCCNC(=N)N)NC(=O)[C@@H](CCCNC(=N)N)NC(=O)[C@H](N)CCCNC(=N)N)C(C)C)C(=O)N[C@H](CCCNC(=N)N)C(=O)N[C@H](CCCNC(=N)N)C(=O)O [Peptide G11.46, rrrrrrrVSrrFMrr] (H-[dR][dR][dR][dR][dR][dR][dR]VS[dR][dR]FM[dR][dR]-OH; N-terminus and C-terminus assumed)
light units from S. aureus in wound (S. aureus; 25 μg and 100 μg, data not shown): significant reduction in light units
light units from S. aureus in wound (S. aureus; 100 μg, after 6 hrs.): light units approached levels obtained with the blank
recovery of bacteria (S. aureus; by 24 hours): some recovery of bacteria by 24 hours
B. cereus MIC (B. cereus [1]): 0.35 µM
IC50 (B. cereus [1]): 200 nM
MIC (E. coli DH5a): 0.8 µM (≈ 1.76 µg/mL)
E. coli DH5a MIC (E. coli DH5a; pH 7.2): 0.8 µM
IC50 (E. coli DH5a; pH 7.2): 100 nM
% α-helix ([2]; Table 4): 0%
secondary structure ([2]; aqueous solution or TFE where stated): random coils in aqueous solution or in TFE
IC50 (Salmonella): 210 nM
Salmonella MIC (Salmonella): 0.7 µM
MIC (bacterial strains; ATCC#25922, 3 h): 0.32 to 0.63 µM
MIC (bacterial strains; ATCC#29213, 3 h): 0.04 to 0.08 µM
MIC (bacterial strains; ATCC#53522, 3 h): 0.02 µM (≈ 0.044 µg/mL)
MIC (bacterial strains; SL1344, 3 h): 0.63 to 1.25 µM
% Survival (CFU Assay) (E. coli; 0.01 μM): 98.89%
% Survival (CFU Assay) (E. coli; 0.02 μM): 166.22%
% Survival (CFU Assay) (E. coli; 0.04 μM): 132.25%
% Survival (CFU Assay) (E. coli; 0.08 μM): 89.24%
% Survival (CFU Assay) (E. coli; 0.16 μM): 31.77%
% Survival (CFU Assay) (E. coli; 0.32 μM): 2.02%
% Survival (CFU Assay) (E. coli; 0.63 μM): <0.002%
% Survival (CFU Assay) (E. coli; 1.25 μM): <0.002%
% Survival (CFU Assay) (Salmonella typhimurium; 0.02 μM): 116.09%
% Survival (CFU Assay) (Salmonella typhimurium; 0.04 μM): 126.32%
% Survival (CFU Assay) (Salmonella typhimurium; 0.08 μM): 105%
% Survival (CFU Assay) (Salmonella typhimurium; 0.16 μM): 71.35%
% Survival (CFU Assay) (Salmonella typhimurium; 0.32 μM): 24.68%
% Survival (CFU Assay) (Salmonella typhimurium; 0.63 μM): 1.45%
% Survival (CFU Assay) (Salmonella typhimurium; 1.25 μM): 0.03%
% Survival (CFU Assay) (Salmonella typhimurium; 2.5 μM): <0.002%
% Survival (CFU Assay) (B. cereus [3]; 0.005 uM): 103.49%
% Survival (CFU Assay) (B. cereus [3]; 0.01 uM): 44.62%
% Survival (CFU Assay) (B. cereus [3]; 0.02 uM): <0.5%
% Survival (CFU Assay) (B. cereus [3]; 0.04 uM): 0.02%
% Survival (CFU Assay) (B. cereus [3]; 0.08 uM): 0.002%
% Survival (CFU Assay) (B. cereus [3]; 0.16 uM): 0.002%
% Survival (CFU Assay) (Staphylococcus aureus; 0.005 μM): 19.9%
% Survival (CFU Assay) (Staphylococcus aureus; 0.01 μM): 8.04%
% Survival (CFU Assay) (Staphylococcus aureus; 0.02 μM): 2.3%
% Survival (CFU Assay) (Staphylococcus aureus; 0.04 μM): 0.84%
% Survival (CFU Assay) (Staphylococcus aureus; 0.08 μM): 0.2%
% Survival (CFU Assay) (Staphylococcus aureus; 0.16 μM): 0.02%
